Source: patent publication US9150553B2, “Carboxamide compounds and their use as calpain inhibitors” (AbbVie Deutschland GmbH & Co. KG, priority 2007, dated 2015)
Several values for one entry are separate records, joined by “and”; a condition that tells them apart may be missing. Identical values can stand only once.

Experiment: In vivo pharmacokinetic profile after oral dosing in rats (plasma, LC-MS)
Set-up: species or system Sprague-Dawley rats
Settings: plasma prodrug I-2 after oral 10 mg/kg of prodrug example 2, male rats, lines = rat 1, 2, 3 and mean
Description: The compound described in example 2 was prepared as a solution (20% EtOH, 40% PEG400, qc. Ampuwa) at a concentration appropriate for a 10 mg/kg (5 mL/kg) oral dose.
Three male Sprague-Dawley rats (200-300 g; Elevage Janvier, France) were used in this study. Due to size, each rat was housed in Macrolon Type 111 cages under conventional barrier conditions. The animals were fasted overnight prior to dosing and throughout the duration of the study but were permitted water ad libitum and were permitted food typically six hours postdosing. Control animals were placed under deep isoflurane anesthia and euthanized by bleeding (cardiac puncture) and their tissues removed and used as blank standards during sample analysis.
The group contained three rats. The group of rats received a 10 mg/kg (5 mL/kg) dose orally by gavage. At the conclusion of the study, rats were euthanized by bleeding (cardiac puncture) under deep isoflurane anesthesia.
Potassium-EDTA blood samples (approx. 200-300 μl) were withdrawn from the tail vein of each animal by butterfly catheter 0.25, 0.5, 1, 1.5, 2, 3, 4, 6, 8 and 24 hours after drug administration. Upon collection, the samples were promptly placed in an ice bath, and within 2 hours after sample collection they were centrifuged at about 4° C. Upon completion of the study, animals were put under deep anesthesia using isoflurane and euthanized by bleeding (cardiac puncture). The resulting plasma samples were placed in clean PP-tubes and stored in a freezer until analysis.
The plasma samples were assayed for the compound I and corresponding drug II using appropriate liquid chromatography mass spectrometry procedures.
Peak plasma concentrations (Cmax) and the time to peak plasma concentration (Tmax) were read directly from the plasma concentration data for each rat. The drug and the prodrug plasma concentration data were submitted to multi-exponential curve fitting using WinNonlin. The area under the plasma concentration-time curve from 0 to t hours (time of the last measurable plasma concentration) after dosing (AUC0-t) was calculated using the linear trapezoidal rule for the plasma concentration-time profiles. The residual area extrapolated to infinity, determined as the final measured plasma concentration (Ct) divided by the terminal elimination rate constant (B), was added to AUC0-t to produce the total area under the curve (AUC0-∞). The apparent total plasma clearance (CLp) was calculated by dividing the administered dose by the AUC0-∞. The initial volume of distribution (Vc) was calculated as the dose divided by the extrapolated concentration at time=0 (C0). […] The bioavailability was calculated as the dose-normalized AUC0∞, from the oral dose divided by the corresponding value derived from an intravenous dose.

[1] = male, Sprague-Dawley, rat, plasma, po, 10 mg/kg

For NC(=O)C1(C(Cc2ccccc2)NC(=O)c2cccnc2-n2ccc(-c3cccc(C(F)(F)F)c3)n2)OCCO1 (stereo not shown) [Compound I-2, N-{1-[2-(Aminocarbonyl)-1,3-dioxolan-2-yl]-2-phenylethyl}-2-{3-[3-(trifluoromethyl)phenyl]-1H-pyrazol-1-yl}nicotinamide], the AUC [1] was 1.7 µg·h/mL, the Tmax [1] was 18 min and the “prodrug AUC” value was 1.315 µg·h/mL and 1.485 µg·h/mL and 2.297 µg·h/mL. For the same compound, the “prodrug Tmax” value was 30 min.
